pIC50: −log10 of the molar value. Like-named read-outs stand apart in the source and are kept apart here.
Experiments:
CDK6/cyclin D1 = biological target: T1, CDK6/cyclin D1 (Homo sapiens, UniProt Q00534); experiment: CDK6/cyclin D1 Lance Ultra enzyme assay; type: biochemical; details: for pIC50: 250 μM ATP, 180 minutes; for inhibitory activities against CDK6 compared with the reference compounds: versus Palbociclib and LY2835219, in words
T1 construct: purchased Life Technologies
Method: (§1) The experimental materials included CDK2/cyclin A, CDK4/cyclin D1, CDK6/cyclin D1 (Life Technologies); ULight-labeled polypeptide substrates, i.e., ULight-4E-BP1 and ULight-MBP (PerkinElmer); the europium-labeled antibody against anti-myelin basic protein and europium-labeled rabbit antibody (PerkinElmer); and Envision® Multilabel Plate Reader (PerkinElmer) used for signal detection.
(§2) The compounds to be tested were diluted three times so as to be at ten gradually varied concentrations.
(§3) The dilutions of the compounds were dissolved in enzyme buffer, respectively. The components of the buffer included 50 mM hydroxyethylpiperazine ethanesulfonic acid solution (pH 7.5), 1 mM ethylenediaminetetraacetic acid, 10 mM magnesium chloride, 0.01% Brij-35, and 2 mM dithiothreitol. After the reaction started, the OptiPlate 384-well plate was sealed with top heat-sealing film TopSeal-A and incubated at room temperature for 180 minutes.
(§4) The stop buffer of the enzyme reaction was prepared by dissolving EDTA in a one-fold dilution of the assay buffer. The reaction was terminated at room temperature for 5 minutes. To each of the reaction systems of CDK2/cyclin A, CDK4/cyclin D1 and CDK6/cyclin D1 was added 5 μL assay mixture (provided with antibody the europium-labeled against anti-myelin basic protein and the europium-labeled rabbit antibody, respectively). They were incubated at room temperature for 60 minutes. The reaction signals were detected by the EnVision instrument according to the principle of time-resolved fluorescence resonance energy transfer.

MCF-7 cells = experiment: MCF-7 cell proliferation (CellTiter-Glo, 6 days); type: cell-based, human; details: for pIC50: Homo sapiens, MCF7, proliferation, 6 days; for MCF-7/MDA-MB-436: ratio of the proliferation IC50 values; for inhibitory activities against the proliferation of MCF-7 cells compared with the reference compounds: versus Palbociclib and LY2835219, in words
Method: EnVision® Multilabel Plate Reader (PerkinElmer) was used.
MCF-7 cells were inoculated in a black 384-well plate by adding 45 μL of the cell suspension (containing 200 of MCF-7 cells) to each of the wells. The plate was incubated overnight in a carbon dioxide incubator.
(§5) A duplicate well test was performed. The medium was added to the middle plate in an amount of 49 μL per well. The gradient dilutions of the compounds were transferred in an amount of 1 μL per well to the middle plate at the corresponding positions, and the mixture was mixed and transferred to the cell plate in an amount of 5 μL per well. The cell plate was incubated in a carbon dioxide incubator for 6 days. Promega CellTiter-Glo reagent was added to the cell plate in an amount of 25 μL per well. The cell plate was incubated at room temperature for 10 minutes to stabilize the luminescence signal. EnVision® Multilabel Plate Reader (PerkinElmer) was used for signal detection.

[1] = tested on: human breast cancer cell line MCF-7; type: in vivo
Method: The in vivo pharmacodynamic study was carried out in human-based tumor cell line-derived xenografted (CDX) BALB/c nude mice, in which were subcutaneously implanted human breast cancer cell line MCF-7.
. All the cages, matts and water were disinfected before use. All the animals had free access to a standard certified commercial laboratory diet. A total of 100 mice were purchased from Shanghai BK Laboratory Animal Co., LTD for study. An estrogen tablet ([…], sustained release within 60 days) was subcutaneously implanted in the left next abdomen of each mice. After 3 days, the tumor cells (10×10^6 in 0.2 mL of phosphate buffer) were subcutaneously implanted in the right next abdomen of each mice for the tumor growth. The administration started when the average tumor volume reached about 150-200 mm^3. The test compounds were orally administered daily, the doses were shown as Table 5. The tumor volumes were measured with a two-dimensional caliper every three days, the volumes were expressed in cubic millimeters and calculated by the formula V=0.5a×b^2, wherein a and b were the major diameter and minor diameter of the tumor, respectively. Antitumor efficacy was determined by dividing an average increase of the tumor volumes of the animals treated with the compounds by an increase of the tumor volumes of the untreated animals.

MDA-MB-436 cells = experiment: MDA-MB-436 cell proliferation (CellTiter-Glo); type: cell-based; details: Homo sapiens
Method: RPMI 1640 medium, fetal bovine serum, penicillin/streptomycin were purchased from Promega (Madison, Wis.). The MCF-7 cell line and the MDA-MB-436 cell line were purchased from the European Collection of Authenticated Cell Cultures (ECACC). EnVision® Multilabel Plate Reader (PerkinElmer) was used.
as §5, with “The compounds to be tested were diluted three times using Bravo to the tenth concentration, i.e., diluted from 10 μM to 0.508 nM. A” for “A”
The IC50 values were obtained by curve fitting using four parameters (obtained from the 205 mode in XLFIT5, iDBS). Table 1 provides the inhibitory activities of the compounds of the invention against the proliferation of MCF-7 cells and MDA-MB-436 cells.

CDK4/cyclin D1 = biological target: T2, CDK4/cyclin D1 (Homo sapiens, UniProt P11802); experiment: CDK4/cyclin D1 Lance Ultra enzyme assay; type: biochemical; details: for inhibitory activities against CDK4 compared with the reference compounds: versus Palbociclib and LY2835219, in words; for pIC50: 350 μM ATP, 180 minutes
T2 construct: purchased Life Technologies
T2 sequence (P11802 whole entry): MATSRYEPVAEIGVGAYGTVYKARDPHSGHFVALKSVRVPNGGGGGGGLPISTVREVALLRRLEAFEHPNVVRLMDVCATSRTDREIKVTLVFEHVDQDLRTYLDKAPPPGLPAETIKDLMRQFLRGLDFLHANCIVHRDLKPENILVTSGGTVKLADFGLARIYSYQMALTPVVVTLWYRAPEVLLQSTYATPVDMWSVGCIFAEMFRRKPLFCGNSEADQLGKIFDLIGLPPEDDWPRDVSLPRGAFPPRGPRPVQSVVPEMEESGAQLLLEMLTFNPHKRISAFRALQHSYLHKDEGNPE
T2 sequence (P24385 whole entry partner): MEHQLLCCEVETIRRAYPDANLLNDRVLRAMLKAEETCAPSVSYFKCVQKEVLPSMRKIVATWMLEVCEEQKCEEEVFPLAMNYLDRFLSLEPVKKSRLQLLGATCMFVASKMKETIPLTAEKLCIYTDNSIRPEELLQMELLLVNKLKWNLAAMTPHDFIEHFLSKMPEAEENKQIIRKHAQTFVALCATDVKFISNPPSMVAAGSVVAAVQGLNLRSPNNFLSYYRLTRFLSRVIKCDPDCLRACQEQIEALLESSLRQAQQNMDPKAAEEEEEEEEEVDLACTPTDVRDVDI
Method: as §1, §2
as §3, with “minutes. • The Enzyme Reaction System of CDK6/Cyclin D1” for “minutes.”
as §4

CDK2/cyclin A = biological target: T3, CDK2/cyclin A (Homo sapiens, UniProt P24941); experiment: CDK2/cyclin A Lance Ultra enzyme assay; type: biochemical; details: 25 μM ATP, 60 minutes
T3 construct: purchased Life Technologies
Method: as §1, §2
The gradient dilutions of the compounds were dissolved in enzyme buffer, respectively. The components of the buffer included 50 mM hydroxyethylpiperazine ethanesulfonic acid solution (pH 7.5), 1 mM ethylenediaminetetraacetic acid, 10 mM magnesium chloride, 0.01% Brij-35, and 2 mM dithiothreitol. After the reaction started, the OptiPlate 384-well plate was sealed with top heat-sealing film TopSeal-A and incubated at room temperature for 60 minutes. • The Enzyme Reaction System of CDK4/Cyclin D1
as §4

Caco-2 monolayer cells = experiment: Caco-2 cell bi-directional permeability assessment; details: Caco-2
Method: (§6) The standard experimental conditions were as follows: • Test concentration: 2 μM (DMSO≤1%); • Number of replication: n=2; • Direction: bi-directional transportation, including two directions, i.e., A→B and B→A; • Incubation time: single time point, 2 hours; • Transport buffer: HBSS, pH 7.4; • Incubation conditions: 37° C., 5% CO2.
(§7) After the incubation, sample solutions taken from the dosing wells and the receiving wells were immediately mixed with a cold acetonitrile solution containing the internal standard. Concentrations of the test compounds in all samples (including the initial dosing solutions, the supernatants of the dosing wells and the receiving solutions) were determined by a LC/MS/MS method. The apparent permeability coefficients, the efflux ratios and other parameters were calculated.

[2] = Study of brain permeability after oral administration; type: in vivo, SD rats; details: for Exposure in brain: 10 mg/kg oral
Method: SD rats were used as the test animals.
Twelve healthy 7- to 9-week-old adult male SD rats were purchased from Shanghai Slack Laboratory Animal Co., Ltd. A proper amount of the test compound was weighed to prepare a 0.5% methylcellulose suspension at 1 mg/mL. The rats received a single oral dose of 10 mg/kg. 0.5 h, 2 h, 8 h, and 24 hours after the administration, 3 rats were respectively killed, and their whole blood and brain tissues were collected. The plasma was prepared by centrifuging the whole blood (3000 g, 15 minutes, 4° C.). The samples of brain homogenate were prepared by mixing the brain tissues with a mixture of methanol and a phosphate buffer (methanol:phosphate buffer=1:2) as homogenate at a ratio of 5:1. The drug concentration of each sample was determined by LC/MS/MS, and AUC was calculated to evaluate the exposure.

[3] = Caco-2 cell bi-directional permeability assessment; details: human, Caco-2, pH 7.4
Method: as §6, §7

T1 sequence (Q00534 whole entry): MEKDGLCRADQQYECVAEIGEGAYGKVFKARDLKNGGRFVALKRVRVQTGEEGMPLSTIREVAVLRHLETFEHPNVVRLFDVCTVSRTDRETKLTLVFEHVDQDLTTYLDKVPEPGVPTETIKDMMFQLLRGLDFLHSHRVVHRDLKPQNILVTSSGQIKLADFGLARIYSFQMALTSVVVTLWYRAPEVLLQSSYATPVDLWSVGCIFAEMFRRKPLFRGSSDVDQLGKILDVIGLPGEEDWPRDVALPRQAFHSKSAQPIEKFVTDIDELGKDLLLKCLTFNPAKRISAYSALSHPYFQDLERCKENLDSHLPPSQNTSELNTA
T1 sequence (P24385 whole entry partner): as the sequence (P24385 whole entry partner) above

| SMILES | pIC50 (CDK6/cyclin D1) | inhibitory activities against CDK6 compared with the reference compounds (CDK6/cyclin D1) | pIC50 (MCF-7 cells) | MCF-7/MDA-MB-436 (MCF-7 cells) | pIC50 (MDA-MB-436 cells) | inhibitory activities against CDK4 compared with the reference compounds (CDK4/cyclin D1) | pIC50 (CDK2/cyclin A) | inhibitory activities against the proliferation of MCF-7 cells compared with the reference compounds (MCF-7 cells) | pIC50 (CDK4/cyclin D1) | further results |
| --- | --- | --- | --- | --- | --- | --- | --- | --- | --- | --- |
| CC(C)c1c2cc(-c3nc(Nc4ccc(N5CCNCC5)cn4)ncc3F)ccc2nn1C [Example 3, 5-fluoro-4-(3-isopropyl-2-methyl-2H-indazol-5-yl)-N-(5-(piperazin-1-yl)pyridin-2-yl) pyrimidine-2-amine] | > 9.10 | higher inhibitory activities | 7.49 | 10.2 | 6.48 | higher inhibitory activities |  |  |  | Tomor volumes ([1]; 25.0 mg/kg orally daily, 0 day): 187 mm^3; Tomor volumes ([1]; 25.0 mg/kg orally daily, 7th day): 249 mm^3; Tomor volumes ([1]; 25.0 mg/kg orally daily, 14th day): 288 mm^3; Tomor volumes ([1]; 25.0 mg/kg orally daily, 21st day): 432 mm^3; antitumor activities in the CDX model of MCF-7 breast cancer ([1]; in words): significant antitumor activities |
| CC(C)c1c2cc(-c3nc(Nc4ccc(N5CCN(CCN)CC5)cn4)ncc3F)ccc2nn1C [Example 9, N-[5-[4-(2-aminoethyl)piperazin-1-yl]-2-pyridyl]-5-fluoro-4-(3-isopropyl-2-methyl-2H-indazol-5-yl)pyrimidine-2-amine] | > 9.10 | higher inhibitory activities | 7.35 | 14.8 | 6.18 | higher inhibitory activities | 8.23 | higher inhibitory activities | 9.51 |  |
| CC(C)c1c2cc(-c3nc(Nc4ccc(N5CCN(CCO)CC5)cn4)ncc3F)ccc2nn1C [Example 10, 2-[4-[6-[[5-fluoro-4-(3-isopropyl-2-methyl-2H-indazol-5-yl)pyrimidin-2-yl]amino]-3-pyridyl]piperazin-1-yl]ethanol] | 9.01 | higher inhibitory activities | 7.54 | 17.2 | 6.30 | higher inhibitory activities | 8.18 | higher inhibitory activities | 9.06 |  |
| CC(C)c1c2cc(-c3nc(Nc4ccc(C5CCNCC5)cn4)ncc3F)ccc2nn1C [Example 13, 5-fluoro-4-(3-isopropyl-2-methyl-2H-indazol-5-yl)-N-[5-(piperidin-4-yl)-2-pyridyl]pyrimidine-2-amine] |  |  |  |  |  |  |  |  |  | Classification Substrates of efflux transporters (Caco-2 monolayer cells): not a substrate of an efflux transporter; exposure in brain tissue compared with the reference compounds ([2]; rat, versus Palbociclib and LY2835219, in words, b797: 0.5 hour and 2 hour): much higher |
| CC(C)c1c2cc(-c3nc(Nc4ccc(N5C[C@@H]6C[C@H]5CN6)cn4)ncc3F)ccc2nn1C [Example 15, N-(5-((1 S,4S)-2,5-diazabicyclo[2.2.1]heptan-2-yl)pyridin-2-yl)-5-fluoro-4-(3-isopropyl-2-methyl-2H-indazol-5-yl)pyrimidine-2-amine] | > 9.10 | higher inhibitory activities | 7.25 | 9.3 | 6.28 | higher inhibitory activities | 8.55 | higher inhibitory activities | > 9.52 |  |
| CC(C)c1c2c(nn1C)CCN(c1nc(Nc3ccc(C4CCN(C)CC4)cn3)ncc1F)C2 [Example 24] | 8.24 |  | 6.58 | 12.4 | 5.48 |  | 7.48 |  | 8.86 |  |
| CCN1CCN(Cc2ccc(Nc3ncc(F)c(-c4cc(F)c5nc(C)n(C(C)C)c5c4)n3)nc2)CC1 [LY2835219, Abemaciclib, reference compound] |  |  |  | 17.3 | 5.99 |  |  |  |  | Papp A→B at 2 h, 2 μM [3]: 2.69 ×10⁻⁶ cm/s; Papp B→A at 2 h, 2 μM [3]: 6.34 ×10⁻⁶ cm/s; Classification Permeability (Caco-2 monolayer cells): High; Tomor volumes ([1]; 50.0 mg/kg orally daily, 0 day): 187 mm^3; Tomor volumes ([1]; 50.0 mg/kg orally daily, 7th day): 261 mm^3; Tomor volumes ([1]; 50.0 mg/kg orally daily, 14th day): 315 mm^3; Tomor volumes ([1]; 50.0 mg/kg orally daily, 21st day): 443 mm^3; Exposure in brain ([2]; time point 0.5 h): 62 nmol/kg; Exposure in brain ([2]; time point 2 h): 525 nmol/kg; Exposure in brain ([2]; time point 8 h): 774 nmol/kg |

— patent US9969719B2, “Substituted 2-hydrogen-pyrazole derivative serving as anticancer drug” (CHIA TAI TIANQING PHARMACEUTICAL GROUP CO., LTD., priority 2015, dated 2018)
